According to the CheMixHub viscosity set:
± gives the uncertainty stated by the source.

Test: xn = mol fraction of the nth substance listed

CC(=O)N1CCOCC1 + CCO
viscosity [mPa·s], 101 kPa
Details | 293.15 K | 303.15 K | 313.15 K | 323.15 K
x1 = 0.0563 | 1.847 ± 0.043 | 1.495 ± 0.035 | 1.153 ± 0.028 | 0.928 ± 0.023
x1 = 0.1288 | 2.747 ± 0.062 | 2.302 ± 0.053 | 1.832 ± 0.043 | 1.518 ± 0.036
x1 = 0.2164 | 3.689 ± 0.082 | 3.134 ± 0.071 | 2.511 ± 0.057 | 2.096 ± 0.048
x1 = 0.2843 | 4.374 ± 0.097 | 3.728 ± 0.083 | 2.983 ± 0.068 | 2.484 ± 0.057
x1 = 0.3147 | 4.656 ± 0.1 | 3.974 ± 0.089 | 3.174 ± 0.072 | 2.639 ± 0.06
x1 = 0.3944 | 5.318 ± 0.12 | 4.533 ± 0.1 | 3.594 ± 0.081 | 2.966 ± 0.068
x1 = 0.4512 | 5.718 ± 0.12 | 4.858 ± 0.11 | 3.819 ± 0.086 | 3.122 ± 0.071
x1 = 0.4957 | 6.016 ± 0.13 | 5.101 ± 0.11 | 3.983 ± 0.09 | 3.232 ± 0.074
x1 = 0.5253 | 6.179 ± 0.13 | 5.227 ± 0.12 | 4.056 ± 0.092 | 3.269 ± 0.075
x1 = 0.5832 | 6.499 ± 0.14 | 5.472 ± 0.12 | 4.199 ± 0.096 | 3.343 ± 0.077
x1 = 0.6341 | 6.728 ± 0.14 | 5.638 ± 0.12 | 4.275 ± 0.098 | 3.358 ± 0.078
x1 = 0.6813 | 6.984 ± 0.15 | 5.832 ± 0.13 | 4.387 ± 0.1 | 3.413 ± 0.08
x1 = 0.7348 | 7.169 ± 0.15 | 5.948 ± 0.13 | 4.407 ± 0.1 | 3.369 ± 0.079
x1 = 0.7921 | 7.459 ± 0.16 | 6.164 ± 0.14 | 4.522 ± 0.11 | 3.417 ± 0.081
x1 = 0.8452 | 7.653 ± 0.16 | 6.289 ± 0.14 | 4.554 ± 0.11 | 3.434 ± 0.082
x1 = 0.9127 | 8.019 ± 0.17 | 6.569 ± 0.15 | 4.788 ± 0.11 | 3.615 ± 0.087
x1 = 0.9734 | 8.395 ± 0.18 | 6.932 ± 0.15 | 5.046 ± 0.12 | 3.797 ± 0.092

CC(=O)N(C)C + OCCO
308.15 K, 101 kPa
Details | viscosity [mPa·s]
x2 = 0.1632 | 1.166 ± 0.11
x2 = 0.2752 | 1.388 ± 0.13
x2 = 0.4068 | 1.611 ± 0.15
x2 = 0.5162 | 2.416 ± 0.22
x2 = 0.6269 | 3.622 ± 0.32
x2 = 0.7125 | 4.662 ± 0.41
x2 = 0.7974 | 5.882 ± 0.49
x2 = 0.8652 | 7.289 ± 0.58
x2 = 0.9339 | 8.916 ± 0.68

O=[N+]([O-])c1ccccc1O + c1ccc2ncccc2c1
viscosity [mPa·s], 101 kPa
Details | 303.15 K | 313.15 K
x1 = 0.1011 | 3.361 ± 0.033 | 2.66 ± 0.026
x1 = 0.2021 | 3.772 ± 0.037 | 2.928 ± 0.028
x1 = 0.2913 | 4.125 ± 0.041 | 3.16 ± 0.031
x1 = 0.3982 | 4.495 ± 0.045 | 3.375 ± 0.033
x1 = 0.4731 | 4.68 ± 0.05 | 3.465 ± 0.034
x1 = 0.5638 | 4.72 ± 0.05 | 3.47 ± 0.034
x1 = 0.6538 | 4.595 ± 0.046 | 3.41 ± 0.034
x1 = 0.7624 | 4.355 ± 0.044 | 3.25 ± 0.032
x1 = 0.8131 | 4.22 ± 0.042 | 3.151 ± 0.031
x1 = 0.8588 | 4.09 ± 0.04 | 3.059 ± 0.03
x1 = 0.9056 | 3.95 ± 0.04 | 2.955 ± 0.029
x1 = 0.9521 | – | 2.855 ± 0.028

C1CCCCCCCCCCC1 + Cc1ccccc1
303 K, 101 kPa
Details | viscosity [mPa·s]
x1 = 0.0186 | 0.5245 ± 0.0045
x2 = 0.8099 | 0.6724 ± 0.0055
x2 = 0.9012 | 0.5699 ± 0.0048
x2 = 0.9426 | 0.5336 ± 0.0045

CCCCCCCCCO + CCC(C)=O
viscosity [mPa·s], 100 kPa
Details | x2 = 0.0834 | x2 = 0.1589 | x2 = 0.2407 | x2 = 0.3508 | x2 = 0.4403 | x2 = 0.5589 | x2 = 0.6502 | x2 = 0.7393 | x2 = 0.8501 | x2 = 0.9393
293.15 K | 8.68 ± 0.87 | 6.91 ± 0.69 | 5.59 ± 0.56 | 4.29 ± 0.43 | 3.39 ± 0.34 | 2.38 ± 0.24 | 1.83 ± 0.18 | 1.33 ± 0.13 | 0.78 ± 0.08 | 0.56 ± 0.06
303.15 K | 6.38 ± 0.64 | 5.06 ± 0.51 | 3.89 ± 0.39 | 2.91 ± 0.29 | 2.25 ± 0.23 | 1.52 ± 0.15 | 0.98 ± 0.1 | 0.76 ± 0.08 | 0.53 ± 0.05 | 0.46 ± 0.05
313.15 K | 4.39 ± 0.44 | 3.52 ± 0.35 | 2.8 ± 0.3 | 2.07 ± 0.21 | 1.61 ± 0.16 | 1.21 ± 0.12 | 0.98 ± 0.1 | 0.78 ± 0.08 | 0.55 ± 0.06 | 0.42 ± 0.04
323.15 K | 3.27 ± 0.33 | 2.67 ± 0.27 | 2.14 ± 0.21 | 1.56 ± 0.16 | 1.25 ± 0.13 | 0.92 ± 0.09 | 0.72 ± 0.07 | 0.59 ± 0.06 | 0.47 ± 0.05 | 0.38 ± 0.04

CC(N)=O + c1ccncc1
298.15 K, 101 kPa
Details | viscosity [mPa·s]
x1 = 0.0512 | 0.987 ± 0.2
x1 = 0.0742 | 1.005 ± 0.2
x1 = 0.111 | 1.088 ± 0.22
x1 = 0.2065 | 1.381 ± 0.28

CC(=O)N(C)C + CCCCO
viscosity [mPa·s]
Details | 298.15 K | 303.15 K | 313.15 K
100 kPa, x1 = 0.0565 | 2.252 ± 0.047 | – | 1.598 ± 0.033
100 kPa, x1 = 0.1063 | 2.049 ± 0.043 | – | 1.477 ± 0.031
100 kPa, x1 = 0.2094 | 1.716 ± 0.036 | – | 1.287 ± 0.027
100 kPa, x1 = 0.3134 | 1.503 ± 0.031 | – | 1.15 ± 0.024
100 kPa, x1 = 0.4106 | 1.361 ± 0.028 | – | 1.063 ± 0.022
100 kPa, x1 = 0.5083 | 1.263 ± 0.026 | – | 0.9979 ± 0.021
100 kPa, x1 = 0.6042 | 1.179 ± 0.025 | – | 0.9502 ± 0.02
100 kPa, x1 = 0.7096 | 1.119 ± 0.023 | – | 0.9082 ± 0.019
100 kPa, x1 = 0.8046 | 1.061 ± 0.022 | – | 0.8651 ± 0.018
100 kPa, x1 = 0.9078 | 0.9922 ± 0.021 | – | 0.8128 ± 0.017
100 kPa, x1 = 0.9575 | 0.9601 ± 0.02 | – | 0.7894 ± 0.017
101 kPa, x1 = 0.0968 | – | 1.862 ± 0.016 | –
101 kPa, x1 = 0.1997 | – | 1.585 ± 0.014 | –
101 kPa, x1 = 0.2976 | – | 1.43 ± 0.013 | –
101 kPa, x1 = 0.4 | – | 1.281 ± 0.012 | –
101 kPa, x1 = 0.4956 | – | 1.181 ± 0.012 | –
101 kPa, x1 = 0.599 | – | 1.097 ± 0.011 | –
101 kPa, x1 = 0.6978 | – | 1.029 ± 0.011 | –
101 kPa, x1 = 0.7867 | – | 0.975 ± 0.01 | –
101 kPa, x1 = 0.9006 | – | 0.917 ± 0.01 | –
